Data: patent publication US4415730A, “19-Deformyl-deoxy-desmycosin” (priority 1981, dated 1983)
Values after ≈ are worked out from the molar mass of the structure shown. Like-named read-outs stand apart in the source and are kept apart here.

Assays:
Type in all cases: cell-based
[1] = tested on: Staphylococcus aureus ATCC 6538P; test: MIC, Staphylococcus aureus ATCC 6538P; conditions: ATCC6538P
[2] = tested on: Staphylococcus aureus MS353; test: MIC, Staphylococcus aureus MS353
[3] = tested on: Staphylococcus aureus 0119; test: MIC, Staphylococcus aureus 0119
From the text: (§1) *Macrolide antibioticsresistant A group strain (clinical isolates of
(§2) erythromycin, oleandomycin and 16member-ring-macrolide-resistant strain)

[4] = tested on: Staphylococcus aureus 0127; test: MIC, Staphylococcus aureus 0127
From the text: as §1, §2

[5] = tested on: Streptococcus pyogenes 1022; test: MIC, Streptococcus pyogenes 1022
[6] = tested on: Staphylococcus aureus 0116; test: MIC, Staphylococcus aureus 0116
From the text: as §1, §2

[7] = tested on: Staphylococcus aureus MS353AO; test: MIC, Staphylococcus aureus MS353AO
From the text: as §1, §2

[8] = tested on: Streptococcus pyogenes N.Y.5; test: MIC, Streptococcus pyogenes N.Y.5
[9] = Staphylococcus aureus 0119, macrolide-resistant A group strain, clinical isolate, read-out: MIC
[10] = Staphylococcus aureus 0127, macrolide-resistant A group strain, clinical isolate, read-out: MIC
[11] = Staphylococcus aureus 0116, macrolide-resistant A group strain, clinical isolate, read-out: MIC

CCC1OC(=O)CC(O)C(C)C(OC2OC(C)CC(N(C)C)C2O)C(C)CC(C)C(=O)C=CC(C)=CC1COC1OC(C)C(O)C(OC)C1OC (stereo not shown) [Compound [1] R1 = H, 19-deformyl-4'-deoxy-desmycosin]
MIC [1]: ≤ 0.05 µg/mL | MIC [2]: ≤ 0.05 µg/mL | MIC [3, 9]: > 100 µg/mL | MIC [4, 10]: > 100 µg/mL | MIC [5]: > 100 µg/mL | MIC [6, 11]: 0.8 µg/mL (≈ 1.1 µM) | MIC ([7]; Staphylococcus aureus, MS353AO): 0.8 µg/mL (≈ 1.1 µM) | MIC [8]: ≤ 0.05 µg/mL

CC[C@H]1OC(=O)[C@H](C)[C@@H](O[C@H]2C[C@@](C)(OC)[C@@H](O)[C@H](C)O2)[C@H](C)[C@@H](O[C@@H]2O[C@H](C)C[C@H](N(C)C)[C@H]2O)[C@](C)(O)C[C@@H](C)C(=O)[C@H](C)[C@@H](O)[C@]1(C)O [erythromycin]
MIC [1]: ≤ 0.05 µg/mL | MIC [2]: 0.1 µg/mL (≈ 0.136 µM) | MIC ([3]; Staphylococcus aureus, 0119): > 100 µg/mL | MIC ([4]; Staphylococcus aureus, 0127): > 100 µg/mL | MIC [5]: > 100 µg/mL | MIC ([6]; Staphylococcus aureus, 0116): > 100 µg/mL | MIC ([7]; Staphylococcus aureus MS353AO, macrolide-resistant A group strain, clinical isolate, read-out: MIC): > 100 µg/mL | MIC [8]: ≤ 0.05 µg/mL

CCC1OC(=O)CC(O)C(C)C(OC2OC(C)C(O)C(N(C)C)C2O)C(CC=O)CC(C)C(=O)/C=C/C(C)=C/C1COC1OC(C)C(O)C(OC)C1OC (stereo not shown) [descomycin, 4'-demycarosyl tylosin]
MIC [1]: 0.8 µg/mL (≈ 1.04 µM) | MIC [2]: 0.8 µg/mL (≈ 1.04 µM) | MIC [3, 9]: > 100 µg/mL | MIC [4, 10]: > 100 µg/mL | MIC ([5]; read-out: MIC): > 100 µg/mL | MIC [6, 11]: 3.1 µg/mL (≈ 4.02 µM) | MIC ([7]; Staphylococcus aureus, MS353AO): > 100 µg/mL | MIC [8]: ≤ 0.05 µg/mL

CO[C@@H]1[C@@H](O[C@@H]2O[C@H](C)[C@@H](O[C@H]3C[C@@](C)(O)[C@@H](OC(=O)CC(C)C)[C@H](C)O3)[C@H](N(C)C)[C@H]2O)[C@@H](CC=O)C[C@@H](C)[C@@H](O)/C=C/C=C/C[C@@H](C)OC(=O)C[C@H]1OC(C)=O [josamycin]
MIC [1]: 0.4 µg/mL (≈ 0.483 µM) | MIC [2]: 0.8 µg/mL (≈ 0.966 µM) | MIC [3, 9]: > 100 µg/mL | MIC [4, 10]: > 100 µg/mL | MIC ([5]; read-out: MIC): > 100 µg/mL | MIC [6, 11]: > 100 µg/mL | MIC ([7]; Staphylococcus aureus, MS353AO): > 100 µg/mL | MIC [8]: ≤ 0.05 µg/mL

CCC1OC(=O)CC(O)C(C)C(OC2OC(C)C(O)C(N(C)C)C2O)C(C)CC(C)C(=O)C=CC(C)=CC1COC1OC(C)CC(OC)C1OC (stereo not shown) [Compound [1] R1 = OH, 19-deformyl-4"-deoxy-desmycosin]
MIC [1]: 0.1 µg/mL (≈ 0.137 µM) | MIC [2]: ≤ 0.05 µg/mL | MIC [3, 9]: 12.5 µg/mL (≈ 17.2 µM) | MIC ([4]; Staphylococcus aureus, 0127): 6.3 µg/mL (≈ 8.65 µM) | MIC ([5]; read-out: MIC): 25 µg/mL (≈ 34.3 µM) | MIC [6, 11]: 3.1 µg/mL (≈ 4.26 µM) | MIC ([7]; Staphylococcus aureus, MS353AO): 25 µg/mL (≈ 34.3 µM) | MIC [8]: ≤ 0.05 µg/mL
